Structures can show the parent of a compound that is named as a salt.
Key:
[1] = tested on: HCT 116 human colorectal carcinoma / A375 human malignant melanoma cell lines; assay: Cell proliferation assay (CellTiter-Glo), Example 3; type: cell-based; conditions: in either one of the cell lines (HCT 116, A375), 72 h
Method: Example 3 Cell Proliferation Assay
Compounds are tested in a cell proliferation assay using the following cell lines:
HCT 116 human colorectal carcinoma (ATCC)
(§1) A375 human malignant melanoma (ATCC)
(§2) Both cell lines are maintained in DMEM/F12 (1:1) media (Gibco) supplemented with 10% FCS at 37° C. in a 5% CO2 humidified incubator.
Cells are seeded in 96-well plates at 2,000 cells/well and after 24 hours they are exposed to different concentrations of compounds in 0.83% DMSO. Cells are grown for a further 72 h, and an equal volume of CellTiter-Glo reagent (Promega) is added to each well. This lyses the cells and generates a luminescent signal proportional to the amount of ATP released (and therefore proportional to the number of cells in the well) that can be detected using a multiwell luminometer.
EC50 values are calculated using the XLfit software package (version 2.0.5).

[2] = tested on: cellular p-ERK in HCT116 human colorectal carcinoma / A375 human malignant melanoma cell lines; assay: Phospho-ERK cell-based assay (ELISA), Example 4; conditions: in either one of the cell lines (HCT116, A375), 2 h or 24 h exposure
Method: Example 4 Phospho-ERK Cell-Based Assay
Compounds are tested in a cell-based phospho-ERK ELISA using the following cell lines:
HCT116 human colorectal carcinoma (ATCC)
as §1, §2
Cells are seeded in 96-well plates at 2,000 cells/well and after 24 h they are exposed to different concentrations of compounds in 0.83% DMSO. Cells are grown for a further 2 h or 24 h, fixed with formaldehyde (2% final) and permeabilised with methanol. Following blocking with TBST-3% BSA, fixed cells are incubated with primary antibody (anti-phospho ERK from rabbit) over-night at 4° C. Cells are incubated with Propidium Iodide (DNA fluorescent dye) and detection of cellular p-ERK is performed using an anti-rabbit secondary antibody conjugated to the fluorescent Alexa Fluor 488 dye (Molecular probes). The fluorescence is analysed using the Acumen Explorer (TTP Labtech), a laser-scanning microplate cytometer, and the Alexa Fluor 488 signal is normalised to the PI signal (proportional to cell number).
The EC50 is defined as the concentration at which a given compound achieves a signal half way between the baseline and the maximum response. EC50 values are calculated using the XLfit software package (version 2.0.5).

Row | EC50 [1] | EC50 [2] | SMILES
1 | < 10 µM | < 10 µM | O=C(NOC[C@H](O)CO)c1oc2cnccc2c1Nc1ccc(I)cc1F [Example 9, 3-(2-Fluoro-4-iodo-phenylamino)-furo[2,3-c]pyridine-2-carboxylic acid ((R)-2,3-dihydroxy-propoxy)-amide]
2 | < 10 µM | < 10 µM | O=C(c1oc2ccncc2c1Nc1ccc(I)cc1F)N1C[C@H](O)[C@@H](O)[C@H]1CO [Example 160, (3-(2-fluoro-4-iodophenylamino)furo[3,2-c]pyridin-2-yl)((2R,3S,4S)-3,4-dihydroxy-2-(hydroxymethyl)pyrrolidin-1-yl)methanone]
3 | < 10 µM | < 10 µM | O=C(NO[C@H]1CCNC1)c1oc2ccncc2c1Nc1ccc(I)cc1F [Example 38, 3-(2-Fluoro-4-iodo-phenylamino)-furo[3,2-c]pyridine-2-carboxylic acid ((S)-pyrrolidin-3-yloxy)-amide mono formate salt]
4 | < 10 µM | < 10 µM | O=C(NOC[C@H](O)CO)c1oc2c(Cl)cncc2c1Nc1ccc(I)cc1F [Example 138, 7-Chloro-3-(2-fluoro-4-iodo-phenylamino)-furo[3,2-c]pyridine-2-carboxylic acid ((R)-2,3-dihydroxy-propoxy)-amide]
5 | < 10 µM | < 10 µM | CS(=O)(=O)NCCONC(=O)c1oc2ccncc2c1Nc1ccc(I)cc1F [Example 109, 3-(2-Fluoro-4-iodo-phenylamino)-furo[3,2-c]pyridine-2-carboxylic acid (2-methanesulfonylamino-ethoxy)-amide]
6 | < 10 µM | < 10 µM | O=C(NO)c1oc2ccncc2c1Nc1ccc(I)cc1F [Example 24, 3-(2-Fluoro-4-iodo-phenylamino)-furo[3,2-c]pyridine-2-carboxylic acid hydroxyamide]
7 | < 10 µM | < 10 µM | CN(c1ccc(I)cc1F)c1c(C(=O)NOCCO)oc2ccncc12 [Example 22, 3-[(2-Fluoro-4-iodo-phenyl)-methyl-amino]-furo[3,2-c]pyridine-2-carboxylic acid (2-hydroxy-ethoxy)-amide]
8 | < 10 µM | < 10 µM | O=C(NOC1CCCNC1)c1oc2ccncc2c1Nc1ccc(I)cc1F (stereo not shown) [Example 140, 3-(2-Fluoro-4-iodo-phenylamino)-furo[3,2-c]pyridine-2-carboxylic acid (piperdin-3-yloxy)-amide]
9 | < 10 µM | < 10 µM | O=C(NOC1CNC1)c1oc2ccncc2c1Nc1ccc(I)cc1F [Example 41, 3-(2-Fluoro-4-iodo-phenylamino)-furo[3,2-c]pyridine-2-carboxylic acid (azetidin-3-yloxy)-amide mono formate salt]
10 | < 10 µM | < 10 µM | O=C(NOC[C@H](O)CO)c1oc2ccncc2c1Nc1ccc(I)cc1F [Example 5, 3-(2-Fluoro-4-iodo-phenylamino)-furo[3,2-c]pyridine-2-carboxylic acid ((R)-2,3-dihydroxy-propoxy)-amide]
11 | < 10 µM | < 10 µM | NCCONC(=O)c1oc2ccncc2c1Nc1ccc(I)cc1F [Example 31, 3-(2-Fluoro-4-iodo-phenylamino)-furo[3,2-c]pyridine-2-carboxlic acid (2-amino-ethoxy)-amide]
12 | < 10 µM | < 10 µM | O=C(NOC1CCOCC1)c1oc2ccncc2c1Nc1ccc(I)cc1F [Example 25, 3-(2-Fluoro-4-iodo-phenylamino)-furo[3,2-c]pyridine-2-carboxylic acid (tetrahydro-pyran-4-yloxy)-amide]
13 | < 10 µM | < 10 µM | O=C(NOC1CCNCC1)c1oc2ccncc2c1Nc1ccc(I)cc1F [Example 20, 3-(2-Fluoro-4-iodo-phenylamino)-furo[3,2-c]pyridine-2-carboxylic acid (piperidin-4-yloxy)-amide mono formate salt]
14 | < 10 µM | < 10 µM | NC(=O)c1oc2ccncc2c1Nc1ccc(I)cc1F [Example 21, 3-(2-Fluoro-4-iodo-phenylamino)-furo[3,2-c]pyridine-2-carboxylic acid amide]
15 | < 10 µM | < 10 µM | O=C(NOC[C@H](O)CO)c1oc2c(Br)cncc2c1Nc1ccc(I)cc1F [Example 18, 7-Bromo-3-(2-fluoro-4-iodo-phenylamino)-furo[3,2-c]pyridine-2-carboxylic acid ((R)-2,3-dihydroxy-propoxy)amide]
16 | < 10 µM | < 10 µM | CC(C)(C)OC(=O)N1CCC(ONC(=O)c2oc3ccncc3c2Nc2ccc(I)cc2F)CC1 [Example 16, 4-{[3-(2-Fluoro-4-iodo-phenylamino)-furo[3,2-c]pyridine-2-carbonyl]aminooxy}-piperidine-1-carboxylic acid tert-butyl ester]

Row | EC50 [1] | EC50 [2] | SMILES
17 | < 10 µM | < 10 µM | C=COCCONC(=O)c1oc2ccncc2c1Nc1ccc(I)cc1F [Example 11, 3-(2-Fluoro-4-iodo-phenylamino)-furo[3,2-c]pyridine-2-carboxylic acid (2-vinyloxy-ethoxy)-amide]
18 | < 10 µM | < 10 µM | O=C(NOCC1CC1)c1oc2ccncc2c1Nc1ccc(I)cc1F [Example 8, 3-(2-Fluoro-4-iodo-phenylamino)-furo[3,2-c]pyridine-2-carboxylic acid cyclopropylmethoxy-amide]
19 | < 10 µM | < 10 µM | O=C(NOC[C@H](O)CO)c1oc2ccncc2c1Nc1cc(F)c(I)cc1F [Example 15, 3-(2,5-Difluoro-4-iodo-phenylamino)-furo[3,2-c]pyridine-2-carboxylic acid ((R)-2,3-dihydroxy-propoxy)-amide]
20 |  | < 10 µM | CC(C)ONC(=O)c1oc2ccncc2c1Nc1ccc(I)cc1F [Example 43, (2-Fluoro-4-iodo-phenylamino)-N-isopropoxyfuro[3,2-c]pyridine-2-carboxamide]
21 | < 10 µM | < 10 µM | O=C(NOC[C@H](O)CO)c1oc2ccncc2c1Nc1ccc(I)cc1Cl [Example 13, 3-(2-Chloro-4-iodo-phenylamino)-furo[3,2-c]pyridine-2-carboxylic acid ((R)-2,3-dihydroxy-propoxy)-amide]
22 |  | < 10 µM | CC(C)(CO)ONC(=O)c1oc2c(F)cncc2c1Nc1ccc(I)cc1F [Example 156, 7-Fluoro-3-(2-fluoro-4-iodo-phenylamino)-furo[3,2-c]pyridine-2-carboxylic acid (2-hydroxy-1,1-dimethyl-ethoxy)-amide]
23 |  | < 10 µM | O=C(c1oc2ccncc2c1Nc1ccc(I)cc1F)N1CCC[C@H]1CO [Example 79, (3-(2-fluoro-4-iodophenylamino)furo[3,2-c]pyridin-2-yl)((S)-2-(hydroxymethyl)pyrrolidin-1-yl)methanone]
24 |  | < 10 µM | CN(OCCO)C(=O)c1oc2ccncc2c1Nc1ccc(I)cc1F [Example 23, 3-(2-Fluoro-4-iodo-phenylamino)-furo[3,2-c]pyridine-2-carboxylic acid (2-hydroxy-ethoxyl)-methyl-amide]
25 |  | < 10 µM | CN(CCO)C(=O)c1oc2ccncc2c1Nc1ccc(I)cc1F [Example 81, 3-(2-fluoro-4-iodophenylamino)-N-(2-hydroxyethyl)-N-methylfuro[3,2-c]pyridine-2-carboxamide]
26 |  | < 10 µM | O=C(NCCCONC(=O)c1oc2ccncc2c1Nc1ccc(I)cc1F)c1ccncc1 [Example 48, (2-Fluoro-4-iodo-phenyl amino)-N-[3-(isonicotinamide)propoxy] furo[3,2-c]pyridine-2-carboxamide]
27 |  | < 10 µM | O=C(NCCCONC(=O)c1oc2ccncc2c1Nc1ccc(I)cc1F)c1cccnc1 [Example 47]
28 |  | < 10 µM | O=C(NCCCO)c1oc2ccncc2c1Nc1ccc(I)cc1F [Example 61, 3-(2-fluoro-4-iodophenylamino)-N-(3-hydroxypropyl)furo[3,2-c]pyridine-2-carboxamide]
29 |  | < 10 µM | CC(O)CONC(=O)c1oc2ccncc2c1Nc1ccc(I)cc1F (stereo not shown) [Example 55, 3-(2-Fluoro-4-iodo-phenylamino)-furo[3,2-c]pyridine-2-carboxylic acid (2-hydroxy-propoxy)-amide]
30 |  | < 10 µM | Cc1nccc2oc(C(=O)NOCCO)c(Nc3ccc(I)cc3F)c12 [Example 144, 3-(2-Fluoro-4-iodo-phenylamino)-methyl-furo[3,2-c]pyridine-2-carboxylic acid (2-hydroxy-ethoxy)-amide]
31 |  | < 10 µM | C[C@@H](CO)NC(=O)c1oc2ccncc2c1Nc1ccc(I)cc1F [Example 76, 3-(2-fluoro-4-iodophenylamino)-N-((S)-1-hydroxypropan-2-yl)furo[3,2-c]pyridine-2-carboxamide]
32 |  | < 10 µM | CC(C)(CO)ONC(=O)c1oc2ccncc2c1Nc1ccc(I)cc1F [Example 113, N-(1-hydroxy-2-methylpropan-2-yloxy)-3-(2-Fluoro-4-iodo-phenylamino)furo[3,2-c]pyridine-2-carboxamide]
